Assay [1] has as its target Transcriptional enhancer factor TEF-3 (Homo sapiens) (UniProt Q15561). Briefly: Inhibition of TEAD4 in human MDA-MB-231 cells assessed as decrease in TEAD-dependent Axl gene expression at 10 uM incubated for 24 hrs by RT-qPCR analysis. Format: cell-based.
Assay [2] shares this target. Briefly: Inhibition of TEAD4 in human MDA-MB-231 cells assessed as decrease in TEAD-dependent CTGF gene expression at 10 uM incubated for 24 hrs by RT-qPCR analysis. Format: cell-based.
The target is the same in assay [3]. Briefly: Inhibition of TEAD4 in human MDA-MB-231 cells assessed as decrease in TEAD-dependent NF2 gene expression at 10 uM incubated for 24 hrs by RT-qPCR analysis. Format: cell-based.
For the next assay, the system named is MDA-MB-231. Briefly: Antimigratory activity against human MDA-MB-231 cells assessed as reduction in cell migration at 10 uM incubated for 48 hrs. Format: functional, cell-based.
For assay [4], the target named is Transcriptional enhancer factor TEF-3 (Homo sapiens) (UniProt Q15561). Briefly: Inhibition of TEAD4 in human MDA-MB-231 cells assessed as decrease in TEAD-dependent Cyr61 gene expression at 10 uM incubated for 24 hrs by RT-qPCR analysis. The format is cell-based. For orientation: In qPCR the cycle at which signal appears reflects the starting amount.
Chain of Transcriptional enhancer factor TEF-3 (Homo sapiens) (Q15561 whole entry): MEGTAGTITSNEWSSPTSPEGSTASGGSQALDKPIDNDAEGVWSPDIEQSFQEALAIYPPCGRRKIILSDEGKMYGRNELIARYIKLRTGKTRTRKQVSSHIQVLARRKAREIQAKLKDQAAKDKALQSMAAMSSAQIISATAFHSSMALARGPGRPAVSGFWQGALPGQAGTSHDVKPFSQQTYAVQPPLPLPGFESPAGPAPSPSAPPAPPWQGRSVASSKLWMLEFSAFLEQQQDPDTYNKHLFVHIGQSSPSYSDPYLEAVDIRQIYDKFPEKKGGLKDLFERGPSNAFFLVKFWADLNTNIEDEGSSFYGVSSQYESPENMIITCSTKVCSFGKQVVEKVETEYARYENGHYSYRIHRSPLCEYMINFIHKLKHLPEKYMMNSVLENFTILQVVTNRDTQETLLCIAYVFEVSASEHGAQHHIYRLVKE
Assay [5] has the same target. Briefly: Binding affinity to TEAD4 (unknown origin) assessed as change in aggregation temperature at 25 uM by DSLS thermal shift assay.
The target is the same in assay [6]. Briefly: Binding affinity to TEAD4 (unknown origin) assessed as change in aggregation temperature at 25 uM by DSF assay.

The source made the active and inactive calls. No cut-off for these calls is given here.

Regarding `O=C(O)c1ccccc1Nc1cccc(C(F)(F)F)c1`, the inhibition result in assay [1], in assay [2], in assay [3] and in assay [4] was “inactive” throughout. Further, the result with MDA-MB-231 was inactive.

Consider `O=C(O)c1cccnc1Nc1cccc(-c2cccc(C(F)(F)F)c2)c1`, for which the deltaT in assay [5] came to 4.8 °C.

Turning to `O=C(O)c1ccccc1Nc1cccc(-c2ccccc2)c1`, in assay [5], the deltaT was 2.1 °C.

For the compound `O=C(O)c1ccc(F)cc1Nc1cccc(-c2cccc(Br)c2)c1`, the deltaT in assay [5] turned out to be 3.9 °C.

On to `O=C(O)c1ccccc1Nc1cccc(OCc2ccccc2)c1`, for which, in assay [5], the deltaT is 2.9 °C.

In the case of `O=C(O)c1ccc(F)cc1Nc1cccc(-c2cccnc2)c1`, in assay [5], the deltaT was 0 °C.

In the case of `O=C(O)c1ccc(F)cc1Nc1cccc(-c2cccc(F)c2)c1`, the deltaT in assay [5] came out at 3.9 °C.

As for `O=C(O)c1ccc(F)cc1Nc1cccc(Cc2ccccc2)c1`, in assay [5], the deltaT worked out at 3 °C.

For `O=C(O)c1ccc(F)cc1Nc1cccc(-c2ccccn2)c1`, the deltaT in assay [5] stood at 1 °C.

As to `O=C(O)c1cccnc1Nc1cccc(OCCc2ccccc2)c1`, the inhibition entry in assay [1], in assay [2], in assay [3] and in assay [4] was “inactive” throughout. For the same compound, the deltaT in assay [6] turned out to be 3.6 °C.

In the case of `O=C(O)c1ccc(F)cc1Nc1cccc(-c2cccc(C(F)(F)F)c2)c1`, in assay [5], the deltaT came out at 6.2 °C.

Consider `Cc1ccccc1Nc1cc(F)ccc1C(=O)O`, for which the deltaT in assay [5] was found to be 2.2 °C.

Take `O=C(O)c1ccc(F)cc1Nc1cccc(OCc2ccccc2)c1`: in assay [5], the deltaT was determined as 3.8 °C. In addition, the inhibition result in assay [1] and in assay [4] was “inactive” each time. In addition, the inhibition result in assay [2] and in assay [3] was “Active” in each case.

Consider `Cc1cccc(Nc2cc(F)ccc2C(=O)O)c1`, for which the deltaT in assay [5] was 4.7 °C.

As to `Cc1ccc(Nc2cc(F)ccc2C(=O)O)cc1OCc1ccccc1`, the deltaT in assay [5] amounted to 3.8 °C.

`O=C(O)c1cccnc1Nc1cccc(C(F)(F)F)c1`: the inhibition result in assay [1], in assay [2], in assay [3] and in assay [4] was “inactive” throughout.

On to `O=C(O)c1ccc(F)cc1Nc1cccc(COc2ccccc2)c1`, for which, in assay [5], the deltaT turned out to be 3 °C.

With `O=C(O)c1ccc(F)cc1Nc1cccc(OCCc2ccccc2)c1`, the deltaT in assay [5] turned out to be 5.1 °C. The inhibition result in assay [1], in assay [2], in assay [3] and in assay [4] was “Active” in each case. The result in the assay on MDA-MB-231 was Active.

With `O=C(O)c1ccc(F)cc1Nc1cccc(-c2ccccc2)c1`, in assay [5], the deltaT was determined as 3.4 °C. The inhibition entry in assay [1], in assay [2], in assay [3] and in assay [4] was “Active” throughout. For the same compound, the result in the assay on MDA-MB-231 was Active.

`O=C(O)c1ccc(F)cc1Nc1ccccc1-c1cccs1`: the deltaT in assay [5] was determined as 5.5 °C. In addition, the inhibition entry in assay [1], in assay [2], in assay [3] and in assay [4] was “inactive” in each case.

Take `Cc1ccc(C(=O)O)c(Nc2cccc(OCc3ccccc3)c2)c1`: in assay [5], the deltaT was determined as 2.3 °C.

On to `COc1ccccc1-c1cccc(Nc2cc(F)ccc2C(=O)O)c1`, for which the deltaT in assay [5] was 1.3 °C.

As for `Cc1ccc(Nc2cc(F)ccc2C(=O)O)cc1`, in assay [5], the deltaT was found to be 4 °C.

In the case of `COc1ccc(-c2cccc(Nc3cc(F)ccc3C(=O)O)c2)cc1`, in assay [5], the deltaT was 2.7 °C.

As to `Cc1ccc(Nc2cccc(OCc3ccccc3)c2)c(C(=O)O)c1`, in assay [5], the deltaT came to 4 °C. Moreover, the inhibition entry in assay [1] and in assay [4] was “inactive” throughout. Moreover, the inhibition result in assay [2] and in assay [3] was “Active” throughout. Moreover, in the assay on MDA-MB-231, the result was Active.

For the compound `O=C(O)c1ccc(F)cc1Nc1cccc(-c2ccccc2C(F)(F)F)c1`, the deltaT in assay [5] came out at 2.5 °C.

For the compound `O=C(O)c1ccc(F)cc1Nc1cccc(-c2cccc(Cl)c2)c1`, in assay [5], the deltaT was 3.1 °C.

`O=C(O)c1ccc(F)cc1Nc1cccc(-c2ccc(C(F)(F)F)cc2)c1`: the deltaT in assay [5] was 4.5 °C.

For `O=C(O)c1ccc(F)cc1Nc1cccc(CCc2ccccc2)c1`, the deltaT in assay [5] came to 5.6 °C.

In the case of `COc1cccc(-c2cccc(Nc3cc(F)ccc3C(=O)O)c2)c1`, the deltaT in assay [5] came out at 3.5 °C.

For the origin of these results see ChEMBL document CHEMBL5365537, “Development of LM-41 and AF-2112, two flufenamic acid-derived TEAD inhibitors obtained through the replacement of the trifluoromethyl group by aryl rings” (Bioorg Med Chem Lett, 2023).
